Reference: patent publication US6579545B2, “Coated chewing gum products containing an antigas agent” (WM. Wrigley Jr. Company, priority 2000, dated 2003)

Description: Analysis of a precipitated calcium carbonate having a median particle size of about 5 microns was done before and after being applied as a coating.

O=C([O-])[O-].[Ca+2] [precipitated calcium carbonate, calcium carbonate]
particle size (after preparing a suspension and applying it to a gum pellet for an antacid gum product): 4.9 microns | median particle size (before coating): 5.1 microns
